Measurements published in article PMC9822155, “Synthesis and Antiproliferative Activity against Cancer Cells of Indole-Aryl-Amide Derivatives” (Molecules, 2022).

Legend:
[1] = test system: HT29 (human colorectal adenocarcinoma) cells; test: MTT viability assay, HT29; assay type: cell-based
Excerpt: (§1) To investigate whether the compounds have an antitumor activity, we performed in vitro viability assays against a panel of cancer cell lines: HT29 (human colorectal adenocarcinoma), HeLa (human cervical carcinoma), IGROV-1 (human ovarian carcinoma), MCF7 (human breast cancer), PC-3 (human prostate adenocarcinoma), and Jurkat J6 (human […]). The I407 (human embryonic intestinal) and 3T3 (mouse embryonic fibroblast) cells were used as controls. The growth inhibitory concentration was determined by incubating the cells with increasing concentrations (0.01–500 μM) of the compounds for 24 h. Data obtained from cell growth assays were elaborated to assess the concentration of cell viability (IC50) and selectivity indices (SI), and the results are shown in Table 2 and Table 3, respectively.
(§2) HT29 human colorectal adenocarcinoma cells, HeLa human cervix adenocarcinoma cells, MCF7 human breast adenocarcinoma cells, PC-3 human prostate adenocarcinoma cells, J6 Jurkat Clone E6-1 acute T cell leukemia, the healthy I407 human intestine cells, and mouse embryonic fibroblast 3T3 fibroblasts as controls cell lines were purchased from American Type Culture Collection (ATCC, Manassas, VA). The human ovarian cancer cell line IGROV1 has been kindly provided by Prof. Colnaghi (Istituto Nazionale Tumori (IRCCS) (Milano, Italy). Cells were cultured in RPMI 1640 medium (Labtek Eurobio, Milan, Italy), supplemented with 10% FCS (Euroclone, Milano, Italy) and 2 mM L-glutamine (Sigma-Aldrich, Milano, Italy), at 37 °C, and a 5% CO2 atmosphere. The compounds were dissolved in DMSO in a 30–40 mM stock solution. In cell treatments, the final DMSO concentration never exceeded 0.1%.
(§3) Cells were seeded at 1.5 × 10^4 cells/well in a 96-well culture plastic plate (Sarsted, Milan, Italy), and after 24 h of growth were exposed to increasing concentrations of each distinct compound (from 0.010 μM to 500 μM) solubilized in RPMI 1640 medium. MTT assay was performed according to the literature. In brief, after 24 h of treatment, the culture medium was replaced with 0.1 mL of 3-(4,5-dimethylthiazolyl-2)-2,5-diphenyltetrazolium bromide (MTT, Sigma-Aldrich, Milano, Italy) dissolved in PBS at the concentration of 0.2 mg/mL, and samples were incubated for 2 h at 37 °C. The absorbance at 570 nm was measured using a multiwell plate reader (Tecan, Männemorf, Switzerland), and data were analyzed by Prism GraphPad software, and expressed as IC50 μM.

[2] = test system: HeLa (human cervical carcinoma) cells; test: MTT viability assay, HeLa; assay type: cell-based; conditions: Homo sapiens; MTT, 24 h
Excerpt: as §1, §2, §3

[3] = test system: 3T3 (mouse embryonic fibroblast) cells; test: MTT viability assay, 3T3; assay type: cell-based; conditions: 24 h, normal cells
Excerpt: as §1, §2, §3

[4] = test system: I407 (human embryonic intestinal) cells; test: MTT viability assay, I407; assay type: cell-based; conditions: 24 h, normal cells
Excerpt: as §1, §2, §3

[5] = test system: CDKN1B, CDKN1A and Bax transcription in HT29 cells; test: Quantitative real-time PCR of CDKN1B, CDKN1A, Bax; assay type: cell-based, human; conditions: HT29, 5 μM, 6 h, normalized to G3PDH, vs. control
Procedure: To verify whether the epigenetic modifications were related to changes in gene expression, we proceeded with the qtRT-PCR analysis and western blot of related protein products. Transcription levels of CDKN1B, CDKN1A, and Bax were analysed by RT-PCR performed on cDNA of HT29 control and treated with 5 μM of 5 for 6 h.
24 h after seeding, HT29 cells have been treated with 5 µM 5 for 6 h. Total RNA has been isolated by RNeasy Mini kit (Qiagen, Hilden, Germany) according to the manufacturer’s protocol. 1 μg of RNA has been reverse-transcribed with RevertAid First Strand cDNA Synthesis Kit (Fermentas, Ontario, Canada) by using oligo(dT) primers. The cDNA has been analyzed by quantitative Real-Time PCR (qRT-PCR), by employing the LightCycler FastStart DNA Master SYBR Green I Kit and the LightCycler 2.0 instrument (Roche Diagnostics, Manheim, Germany). Gene expression has been quantified by ΔΔCT method, by using G3PDH as the housekeeping gene. The following primers were used: 5′-[…]-3′ (forward) and 5′-[…]-3′ (reverse) for G3PDH detection, 5′-[…]-3′ (forward) and 5′-[…]-3′ (reverse) for p27 detection 5′-[…]-3′(forward) and 5′-[…]-3′ (reverse) for p21 WAF1 detection, 5′-GATGCGTCCACCAAGAAGC-3′ (forward) and 5′-CCGCCACAAAGATGGTCAC -3′ (reverse) for Bax detection.

[6] = test system: acetylated histones in HT29 cells; test: Histone acetylation, western blot of nuclear lysates; assay type: cell-based, human; conditions: HT29, 5 μM, 6 h
Procedure: In order to identify acetylated histones, we analyzed the nuclear cell lysates by western blot using a 10% polyacrylammide gel electrophoresis. […] Differences in the density of the bands are thought to reflect differences in protein acetylation levels. Histone acetylation signals were quantified by densitometry and normalized on histone H1 (Figure 5).
HT29 cells were seeded in dish and after 24 h they were treated for 6 h with compound 5 at final concentration of 5 µM. Cells were harvested, washed with 10 mM sodium butyrate in PBS, and nuclei were isolated in according to Amellem and Micheletti. The nuclear pellet was suspended in 0.1 mL ice-cold H2O using a Vortex mixer, and concentrated H2SO4 was added to the suspension to give a final concentration of 0.4 N. After incubation at 4 °C for 1 h, the suspension was centrifuged for 5 min at 14,000× g, and the supernatant was taken and mixed with 1 mL of acetone. After overnight incubation, the coagulate material was collected by microcentrifugation and air-dried. […] Proteins were quantified using a protein assay kit (Bio-Rad, Hercules, CA, USA). Histones were detected resolving samples on a 10% gel in MES buffer at 200 V for 40 min. […] After five washes with PBS-TWEEN 20 0.1%, antibody binding was detected by Amersham ECL Plus Western Blotting Detection System (GE Healthcare, Milan, Italy).

[7] = test system: MCF7 (human breast cancer) cells; test: MTT viability assay, MCF7; assay type: cell-based; conditions: Homo sapiens, MCF7; MTT, 24 h
Excerpt: as §1, §2, §3

Jurkat J6 cells = test: MTT viability assay, Jurkat J6; assay type: cell-based, human
Excerpt: as §1, §2, §3

[8] = test system: PC-3 (human prostate adenocarcinoma) cells; test: MTT viability assay, PC3; assay type: cell-based
Excerpt: as §1, §2, §3

IC50 ([1]; Homo sapiens, HT-29, MTT, 24 h): 2.61 ± 0.05 µM
IC50 [2]: > 500 µM
IC50 [7]: > 500 µM
IC50 (Jurkat J6 cells; Homo sapiens, Jurkat, MTT, 24 h): 0.37 ± 0.04 µM
IC50 ([8]; Homo sapiens, MTT, 24 h): 0.39 ± 0.07 µM
SMILES: Nc1ccc(CN(Cc2ccc(O)cc2)C(=O)Cc2c[nH]c3ccccc23)cc1 [Compound 5]
Selectivity Index IC503T3/ IC50HT29 ([1]; 3T3 normal cells as reference): 12.26
IC50 [3]: 32 ± 0.02 µM
IC50 [µM] I407 [4]: no activity
IC50 ([4]; Homo sapiens): > 500 µM
Bax gene expression (fold change) [5]: 2.58 ± 0.11
CDKN1A gene expression (fold change) [5]: 4.16 ± 0.53
CDKN1B gene expression [5]: did not modify the gene expression
Histone H2/H3 acetylation [6]: did not modify the state of acetylation of H2/H3
Histone H4 acetylation [6]: induced H4 hyperacetylation
Selectivity Index IC503T3/ IC50J6 (Jurkat J6 cells; 3T3 normal cells as reference): 86.487
Selectivity Index IC503T3/ IC50PC3 ([8]; 3T3 normal cells as reference): 82.051
